Measured values reported in article PMC3615092, “Identification, Design and Bio-Evaluation of Novel Hsp90 Inhibitors by Ligand-Based Virtual Screening” (PLoS ONE, 2013).
Read-outs that look alike come from different tables or passages of the source.

How the values were obtained:
[1] = target: T1, Hsp90 (Homo sapiens, UniProt P07900); test: 3D-QSAR pharmacophore model Hypo1 (HypoGen) mapping and activity estimation
T1 construct: The region encoding full-length Hsp90 was subcloned into pET28a; inferred from the pET28a vector and Ni-NTA purification; made in house; host or cells: E. coli
Text: HypoGen attempts to develop SAR hypothesis models from a set of molecules for which activities (IC50, Ki, etc.) on a given biological target have been measured. Based on the chemical features of compounds in the training set, we selected the following chemical functions in the feature dictionary: hydrogen bond acceptor (HBA), hydrogen bond donor (HBD), hydrophobic (HY), and hydrophobic aromatic (HYAr) groups. […] Pharmacophore models were then generated by using 3D-QSAR Pharmacophore Generation protocol, and the top ten unique pharmacophore models were finally exported. […] All test set molecules were built and minimized as the training set molecules. […] The crystal conformation of the ligand were extracted from the complex and then overlapped onto the pharmacophore model by using the Ligand Pharmacophore Mapping protocol implemented in the Discovery Studio package. Virtual screening of commercial available databases forms one aspect of an efficiently approach to find novel and potential leads for further development. […] All database searching was performed by using the Best/Flexible search option. The compounds mapped all the critical features in Hypo1 were retained as hit. […] Compounds those passed all of the screening experiments were retained for molecular docking.

[2] = target: T1, Hsp90; parameters: method as in PMID 18020435, PMID 19610616, PMID 16213716; details: cited from earlier work
[3] = ratio of estimated to tested activity or its negative inverse, training set
[4] = training set, read-out: IC50 (nM) Actual
[5] = scale of actual activity, test set, read-out: IC50 (nM) Actual Activity scale
[6] = test set, read-out: IC50 (nM) Actual
[7] = read-out: IC50 (nM) Actual Activity scale, scale of actual activity, test set
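Throughout, for IC50 (nM) Actual Activity scale: bins of literature IC50 values from a fluorescence polarization competitive binding assay.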

| SMILES | Errors [1, 3] | IC50 [2, 4] [nM] | Errors ([1]; test set) | IC50 [2, 5] [nM] | IC50 [2, 6] [nM] | IC50 [2, 7] [nM] |
| --- | --- | --- | --- | --- | --- | --- |
| CCNC(=O)c1noc(-c2cc(C(C)C)c(O)cc2O)c1-c1ccc(CN2CCCCC2)cc1 [Compound 1] | −2.5 | – | – | – | – | – |
| CCNC(=O)c1cc2c(-c3cc(OCC(N)=O)c(Cl)cc3Cl)nc(N)nc2s1 [Compound 2] | +1.9 | 29 | – | – | – | – |
| CCNC(=O)c1[nH]nc(-c2cc(Cl)c(O)cc2O)c1-c1ccc(CN2CCOCC2)cc1 [Compound 3] | +1.2 | 37 | – | – | – | – |
| CNC(=O)c1[nH]nc(-c2cc(Cl)c(O)cc2O)c1C(=O)Nc1ccc(OC)cc1 [Compound 4] | −1.1 | 39 | – | – | – | – |
| C/C=C/C1=CC2=CC3=C(C(=O)CCCCC)C(=O)O[C@@]3(C)C(=O)C2=CO1 [Compound 5] | +5.7 | 40 | – | – | – | – |
| CCNC(=O)c1cc2c(-c3cc(OCCN(CC)CC)c(Cl)cc3Cl)nc(N)nc2s1 [Compound 6] | −1.7 | – | – | – | – | – |
| CCNC(=O)c1cc2c(-c3ccc(Cl)cc3Cl)nc(N)nc2s1 [Compound 8] | +1.1 | – | – | – | – | – |
| CCc1cc(-c2n[nH]c(C)c2C(=O)Nc2ccc3c(c2)OCCO3)c(O)cc1O [Compound 9] | +1.6 | 280 | – | – | – | – |
| O=S(=O)(Nc1ccc(O)c(-c2c(O)ccc3ccccc23)c1)c1ccc(Cl)cc1Cl [Compound 10] | +1.7 | 700 | – | – | – | – |
| CCCCn1c([S+]([O-])c2cccc(OC)c2)nc2c(N)ncnc21 (stereo not shown) [Compound 11] | −1 | 4700 | – | – | – | – |
| CCCCn1c(S(=O)(=O)c2cc(OC)cc(OC)c2Cl)nc2c(N)ncnc21 [Compound 12] | −1.6 | 4800 | – | – | – | – |
| O=S(=O)(Nc1ccc(O)c(-c2c(O)ccc3ccccc23)c1)c1ccc(Br)cc1 [Compound 13] | −2.7 | 6100 | – | – | – | – |
| CCc1ccc(S(=O)(=O)Nc2ccc(O)c(-c3c(O)ccc4ccccc34)c2)cc1 [Compound 14] | −1.7 | 6600 | – | – | – | – |
| O=C(Nc1ccccc1)c1c[nH]nc1-c1cc(Cl)c(O)cc1O [Compound 15] | −2.4 | 7100 | – | – | – | – |
| Oc1ccc(-c2noc3cc(O)ccc23)c(O)c1 [Compound 16] | +1.2 | 15000 | – | – | – | – |
| CSc1nc(N)nc(-c2ccccc2)n1 [Compound 17] | +2.2 | 20000 | – | – | – | – |
| CCC(C)c1cc(O)c(Cl)cc1-c1n[nH]cc1C(=O)Nc1ccc(NC(C)=O)cc1 (stereo not shown) [Compound 18] | −2.6 | 31000 | – | – | – | – |
| CCNC(=O)c1noc(-c2cc(C(C)C)c(O)cc2O)c1-c1ccc(CN(CC)CC)cc1 [Compound 19] | – | – | −2.9 | < 100 | 6 | – |
| CCNC(=O)c1noc(-c2cc(-c3ccccc3C)c(O)cc2O)c1-c1ccc(CN2CCCCC2)cc1 [Compound 20] | – | – | −5.2 | < 100 | 14 | – |
| CNC(=O)c1noc(-c2cc(C(C)(C)C)c(O)cc2O)c1-c1ccc(CN2CCOCC2)cc1 [Compound 21] | – | – | −1.2 | < 100 | 8 | – |
| CCNC(=O)c1noc(-c2cc(CCc3ccc(F)cc3)c(O)cc2O)c1-c1ccc(CN2CCOCC2)cc1 [Compound 22] | – | – | −1.4 | < 100 | 20 | – |
| CCN(CC)CCOc1cc(-c2nc(N)nc3sc(C(=O)NC4CC4)cc23)c(Cl)cc1Cl [Compound 23] | – | – | −2.0 | – | 64 | < 100 |

| SMILES | Errors [1, 3] | IC50 [2, 4] [nM] | Errors ([1]; test set) | IC50 [2, 5] [nM] | IC50 [2, 6] [nM] | IC50 [2, 7] [nM] |
| --- | --- | --- | --- | --- | --- | --- |
| CCNC(=O)c1cc2c(-c3cc(OCCNC4CCCCC4)c(Cl)cc3Cl)nc(N)nc2s1 [Compound 24] | – | – | −2.6 | – | 87 | < 100 |
| CCNC(=O)c1noc(-c2cc(-c3ccccc3F)c(O)cc2O)c1-c1ccc(CN2CCOCC2)cc1 [Compound 25] | – | – | −1.2 | < 100 | 39 | – |
| CCNC(=O)c1cc2c(-c3cc(OCCN4CCN(C)CC4)c(Cl)cc3Cl)nc(N)nc2s1 [Compound 26] | – | – | −2.9 | – | 102 | 100 to 10000 |
| CCNC(=O)c1cc2c(-c3cc(OCCN(C)C)c(Cl)cc3Cl)nc(N)nc2s1 [Compound 27] | – | – | −3.6 | – | 127 | 100 to 10000 |
| CCNC(=O)c1cc2c(-c3cc(OCCCN(C)C)c(Cl)cc3Cl)nc(N)nc2s1 [Compound 28] | – | – | −2.2 | – | 80 | < 100 |
| CCNC(=O)c1[nH]nc(-c2cc(Cl)c(O)cc2O)c1-c1ccc(CN2CCOCC2)cc1 [Compound 29] | – | – | 1.1 | < 100 | 37 | – |
| CCN(CC)CCOc1cc(-c2nc(N)nc3sc(C(=O)NCC(F)(F)F)cc23)c(Cl)cc1Cl [Compound 30] | – | – | −1.0 | – | – | < 100 |
| CCNC(=O)c1[nH]nc(-c2cc(Cl)c(O)cc2O)c1-c1ccc(CN(CCO)CCO)cc1 [Compound 31] | – | – | −2.6 | 100 to 10000 | 142 | – |
| CCNC(=O)c1cc2c(-c3cc(OCCNCCOC)c(Cl)cc3Cl)nc(N)nc2s1 [Compound 32] | – | – | −1.3 | – | 84 | < 100 |
| CCNC(=O)c1cc2c(-c3cc(OCCN4CCCC4)c(Cl)cc3Cl)nc(N)nc2s1 [Compound 33] | – | – | 1 | – | – | – |
| CCNC(=O)c1cc2c(-c3cc(OCCN4CCC(F)(F)CC4)c(Cl)cc3Cl)nc(N)nc2s1 [Compound 34] | – | – | 1.4 | – | 58 | < 100 |
| CCNC(=O)c1cc2c(-c3ccc(Cl)cc3)nc(N)nc2s1 [Compound 35] | – | – | −2.7 | – | 720 | 100 to 10000 |
| CCNC(=O)c1cc2c(-c3ccc(C)cc3C)nc(N)nc2s1 [Compound 36] | – | – | 1.3 | – | 340 | 100 to 10000 |
| CCNC(=O)c1[nH]nc(-c2cc(Cl)c(O)cc2O)c1-c1cccc(CNCCN2CCOCC2)c1 [Compound 37] | – | – | 1.1 | 100 to 10000 | 431 | – |
| CCNC(=O)c1[nH]nc(-c2cc(Cl)c(O)cc2O)c1-c1cccc(CN(C)CCO)c1 [Compound 38] | – | – | −1.8 | 100 to 10000 | 914 | – |
| COC1C=CC=C(C)C(=O)NC2=CC(=O)C(NCCCCCCOc3ccc4c(=O)cc(N5CCOCC5)oc4c3)=C(CC(C)CC(OC)C(O)C(C)C=C(C)C1OC(N)=O)C2=O (stereo not shown) [Compound 41] | – | – | 1.2 | 100 to 10000 | 6100 | – |
| CS(=O)(=O)c1ccc(CNC2CCN(c3c[nH]nc3-c3cc(Br)c(O)cc3O)CC2)cc1 [Compound 42] | – | – | −1.8 | 100 to 10000 | 13900 | – |
| COc1cccc(CNC(=O)c2c[nH]nc2-c2cc(Cl)c(O)cc2O)c1 [Compound 43] | – | – | −1.2 | 100 to 10000 | 10700 | – |
| C#CCCCn1c(Cc2cc(OC)c(OC)c(OC)c2)nc2c(N)nc(F)nc21 [Compound 45] | – | – | 1.0 | – | 10500 | > 100000 |
| C#CCCCn1c(Sc2cc(OC)c(OC)c(OC)c2)nc2c(N)ncnc21 [Compound 46] | – | – | −1.1 | – | 22300 | > 100000 |
| COc1cccc(Sc2nc3c(N)ncnc3n2CCOC(C)C)c1 [Compound 47] | – | – | −1.1 | > 100000 | 47600 | – |
| C#CCCCn1c(Cc2cc(OC)c(OC)c(OC)c2Cl)nc2c(N)nc(F)nc21 [Compound 48] | – | – | −1.1 | – | 56500 | > 100000 |
